# Measured values taken from patent US8524898B2, “Proton acceptor iminium/carbocation-type coupling agents” (Luxembourg Bio Technologies Ltd., priority 2007, dated 2013).
# Structures can show the parent of a compound that is named as a salt.
# Test: not given
# Details: not given
row,Compound,melting point
1,"CN(C)C(ON=C(C#N)C#N)=[N+]1CCCC1 (as salt: phosphate) [HDmPyODC, 1-[(1-(dicyanomethylideneaminooxy)-dimethylamino-pyrrolodinomethylene)]methanaminium hexafluorophosphate]",146 to 147 °C (dec.)
2,"CCOC(=O)C(C#N)=NOC(N(C)C)=[N+]1CCCC1 (as salt: phosphate) [HDmPyOCC, 1-[(1-(Cyano-2-ethoxy-2-oxoethylideneaminooxy)-dimethylamino-pyrrolodinomethylene)]methanaminium hexafluorophosphate]",126 to 127 °C (dec.)
3,"[O-][n+]1nn(C(N2CCCC2)N2CCOCC2)c2cccnc21 (centres unmarked) (as salt: phosphate) [HMPyA, 1-(morpholino(pyrrolidinium-1-ylidene)methyl)-1H-[1,2,3]triazolo[4,5-I]pyridine 3-oxide hexafluorophosphate]",206 to 208 °C (dec.)
4,"CCOC(=O)/C(C#N)=N/OC(N(C)C)N(C)C (as salt: phosphate) [HTOCC, O-[Cyano(ethoxycarbonyl)methylidene)amino]-1,1,3,3-tetramethyluronium Hexafluorophosphate]",135 to 137 °C (dec.)
5,CN(C)C(n1n[n+]([O-])c2ccc(Cl)cc21)=[N+]1CCCC1 (as salt: phosphate),192 to 193 °C
6,"CCOC(=O)/C(C#N)=N/OC(N1CCOCC1)=[N+]1CCCC1 (as salt: phosphate) [HMPyOCC, 1-((1-cyano-2-ethoxy-2-oxoethylideneaminooxy)(morpholino)methylene) pyrrolidinium hexafluorophosphate]",171 to 172 °C
7,"C[N+](C)=C(ON=C(C#N)C#N)N1CCOCC1 (as salt: phosphate) [HDMODC, 1-[(1-(dicyanomethyleneaminooxy)-dimethylamino-morpholinomethylene)]methanaminium hexafluorophosphate]",118 to 119 °C
8,CN(C)C(O/N=C(\C#N)c1ccccn1)=[N+](C)C (as salt: phosphate),169 to 171 °C
9,O=c1ccccn1OC(N1CCOCC1)=[N+]1CCCC1 (as salt: phosphate),145 to 146 °C (dec.)

# Test: Maximal solubility of coupling agents in DMF
# Details: calculated molarity in DMF
row,Compound,Molarity
1,"1-((dimethylimino)(morpholino)methyl)3-H-6-trifluoromethylbenzo[1,2,3]-triazolo-1-ium-3-olate hexafluorophosphate [6-CF3HDMB]",1.02
2,"1-((dimethylimino)(morpholino)methyl)3-H-6-chlorobenzo[1,2,3]triazolo-1-ium-3-olate hexafluorophosphate [6-Cl-HDMB]",1.0

# Same assay, conditions: maximal solubility; mass of agent per volume of DMF
row,Compound,Wt/ml
1,"1-((dimethylimino)(morpholino)methyl)3-H-6-trifluoromethylbenzo[1,2,3]-triazolo-1-ium-3-olate hexafluorophosphate [6-CF3HDMB]",0.475
2,"1-((dimethylimino)(morpholino)methyl)3-H-[1,2,3]triazolo[4,5-b]pyridine-1-3-olate hexafluorophosphate [HDMA]",0.285
3,"1-((dimethylimino)(morpholino)methyl)3-H-6-chlorobenzo[1,2,3]triazolo-1-ium-3-olate hexafluorophosphate [6-Cl-HDMB]",0.456
